Results as given in publication PMC11603275, “Synthesis and Antimicrobial Evaluation of New 1,2,4-Triazolo[1,5-a]pyrimidine-Based Derivatives as Dual Inhibitors of Bacterial DNA Gyrase and DHFR” (ACS Omega, 2024).
Converted amounts (≈) assume the structure as drawn. Read-outs that look alike come from different tables or passages of the source.

Tests used:
A. flavus [1] = assay: Modified disk diffusion, inhibition zone; details: A. flavus (fungi)
S. aureus [2] = assay: Modified disk diffusion, inhibition zone; details: S. aureus (G+)
P. aeruginosa [3] = assay: Minimum bactericidal concentration (MBC) assay; assay type: cell-based, Pseudomonas aeuroginosa
Excerpt: (§1) The MBC differs from the MIC. […] Unlike the MBC, which leads to mortality, the MIC hinders bacterial growth without causing death.[41] The common expression for MBC is MBC50, signifying the antibiotic concentration that eliminates 50% of the initial bacterial population.[42]

E. coli [4] = assay: MIC assay, 2-fold serial dilution in 96-well microtiter plate; assay type: cell-based, Escherichia coli (ATCC 11775)
Experimental: (§2) The outcomes of this in vitro assay test align with the results of the antimicrobial sensitivity test.
(§3) Appendix A (Supplementary File) provides experimental details.
(§4) In 96-well microtiter plates and […] of fresh bacterial culture of a single McFarland unit overnight, a double serial dilution of each compound […] in sterile standard saline were prepared to every single source well. […] The plates were incubated at 37 °C overnight. As an indicator of bacterial growth, […] of p-iodonitrotetrazolium violet (INT) was added to each well and incubated at 37 °C for 30 min. […] The colorless tetrazolidium salt acts as an electron accepter and is reduced to a red colored formazan product by biological activity organisms. Where bacterial growth was inhibited, the solution in the well remained clear after incubation with INT.

S. aureus [5] = assay: as above; assay type: cell-based, Staphylococcus aureus (ATCC 12600)
Experimental: as §2, §3, §4

E. coli DNA gyrase = target: T1, E. coli DNA gyrase (Escherichia coli, UniProt P0AES6); assay: DNA gyrase inhibitory (supercoiling) assay; assay type: biochemical
T1 construct: purchased Inspiralis
Experimental: (§5) IC50 values were determined using seven different inhibitor concentrations and then calculated using the GraphPad Prism 6.0 software.
All the final compounds were tested for E. coli DNA gyrase inhibitory activity in a supercoiling assay. Activities were determined on streptavidin-coated 96-well microtiter plates from Thermo scientific Pierce. […] After washing off the unbound oligonucleotide, the enzyme test was performed. […] After that, the TF buffer (50 mM NaOAc with pH 5.0, 50 mM NaCl and 50 mM MgCl2) was added to terminate the enzymatic reaction. After additional incubation for 30 min at rt, during which biotin-oligonucleotide-plasmid triplex was formed, the unbound plasmid was washed off using TF buffer and SybrGOLD in T10 buffer (10 mM Tris HCl with pH 8.0 and 1 mM EDTA) was added. […] Initial screening was done at 100 or 10 μM concentration of inhibitors. […] GraphPad Prism software was used to calculate the IC50 values. The result is given as the average value of three independent measurements.

A. flavus [6] = assay: Antifungal MIC assay, 2-fold serial dilution; assay type: cell-based, Aspergillus flavus
P. aeruginosa [7] = assay: MIC assay, 2-fold serial dilution in 96-well microtiter plate; assay type: cell-based, Pseudomonas aeuroginosa (ATCC 10145)
Experimental: as §2, §3, §4

B. subtilis [8] = assay: Minimum bactericidal concentration (MBC) assay; assay type: cell-based, Bacillus subtilis
Excerpt: as §1

P. aeruginosa [9] = assay: Modified disk diffusion, inhibition zone; details: P. aeruginosa (G-)
B. subtilis [10] = assay: Modified disk diffusion, inhibition zone; details: B. subtilis (G+)
S. aureus [11] = assay: Minimum bactericidal concentration (MBC) assay; assay type: cell-based, Staphylococcus aureus
Excerpt: as §1

E. coli [12] = assay: Modified disk diffusion, inhibition zone; details: E. coli (G-)
C. albicans [13] = assay: Modified disk diffusion, inhibition zone; details: C. albicans (fungi)
C. albicans [14] = assay: Antifungal MIC assay, 2-fold serial dilution; assay type: cell-based, Candida albicans
DHFR E. coli = target: T2, DHFR E. coli (Escherichia coli, UniProt P0ABQ4); assay: DHFR inhibitory assay; assay type: biochemical
T2 construct: purchased Inspiralis
Experimental: as §5

E. coli [15] = assay: Minimum bactericidal concentration (MBC) assay; assay type: cell-based, Escherichia coli
Excerpt: as §1

B. subtilis [16] = assay: MIC assay, 2-fold serial dilution in 96-well microtiter plate; assay type: cell-based, Bacillus subtilis (ATCC 6051)
Experimental: as §2, §3, §4

[17] = tested on: Gram-positive and Gram-negative bacteria (B. subtilis, S. aureus, E. coli, P. aeruginosa); assay: Disk diffusion, inhibition zones summarised over the tested bacterial strains; details: over the four tested bacterial strains
[18] = tested on: A. flavus and C. albicans; assay: Disk diffusion, inhibition zones summarised over the fungal species; details: against A. flavus and C. albicans
tested fungal species = assay: MIC summarised over the tested fungal species (abstract); assay type: cell-based; details: range over tested fungal species
[19] = tested on: Gram-positive and Gram-negative bacterial strains; set-up: method as in ref 29 = [29]; Ghaly M. A.; El-Bendary E. R.; Shehata I. A.; Bayomi S. M.; Habib E. Synthesis, antimicrobial activity, DNA-binding affinity and molecular docking of certain 1, 2, 4-triazolo [1, 5-a] pyrimidines; details: cited from earlier work
[20] = target: DNA, Gram-negative strains; set-up: method as in ref 29 = [29]; Ghaly M. A.; El-Bendary E. R.; Shehata I. A.; Bayomi S. M.; Habib E. Synthesis, antimicrobial activity, DNA-binding affinity and molecular docking of certain 1, 2, 4-triazolo [1, 5-a] pyrimidines; details: cited from earlier work
[21] = target: DNA, Gram-positive strains; set-up: method as in ref 29 = [29]; Ghaly M. A.; El-Bendary E. R.; Shehata I. A.; Bayomi S. M.; Habib E. Synthesis, antimicrobial activity, DNA-binding affinity and molecular docking of certain 1, 2, 4-triazolo [1, 5-a] pyrimidines; details: cited from earlier work
[22] = target: S. aureus topoisomerase IV; set-up: method as in ref 44 (a number printed in a supplementary file, which may have a reference list of its own: not looked up in the article's list); details: internal standard value given in the method; cited from earlier work
[23] = Pseudomonas aeruginosa, read-out: MBC
[24] = Escherichia coli, read-out: MIC
[25] = Staphylococcus aureus, read-out: MIC
[26] = Aspergillus flavus, read-out: MIC
[27] = Pseudomonas aeruginosa, read-out: MIC
[28] = Bacillus subtilis, read-out: MBC
[29] = Staphylococcus aureus, read-out: MBC
[30] = Candida albicans, read-out: MIC
[31] = Escherichia coli, read-out: MBC
[32] = Bacillus subtilis, read-out: MIC

T2 sequence (P0ABQ4 whole entry): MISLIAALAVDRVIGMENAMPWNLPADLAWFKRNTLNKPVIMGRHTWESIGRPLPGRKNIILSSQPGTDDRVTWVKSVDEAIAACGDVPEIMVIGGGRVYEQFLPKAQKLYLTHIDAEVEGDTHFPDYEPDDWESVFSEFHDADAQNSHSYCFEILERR

| Structure (SMILES) | Inhibition Zone (IZ) Diameter (A. flavus [1]) [mm/mL] | Inhibition Zone (IZ) Diameter (S. aureus [2]) | MBC (P. aeruginosa [3]; [23]) [µM] | MIC (E. coli [4]; [24]) [µM] | MIC (S. aureus [5]; [25]) [µM] | IC50 (E. coli DNA gyrase) [µM] | MIC (A. flavus [6]; [26]) [µM] | MIC (P. aeruginosa [7]; [27]) [µM] | MBC (B. subtilis [8]; [28]) [µM] | Inhibition Zone (IZ) Diameter (P. aeruginosa [9]) [mm/mL] | Inhibition Zone (IZ) Diameter (B. subtilis [10]) [mm/mL] | MBC (S. aureus [11]; [29]) [µM] | Inhibition Zone (IZ) Diameter (E. coli [12]) [mm/mL] | Inhibition Zone (IZ) Diameter (C. albicans [13]) [mm] | MIC (C. albicans [14]; [30]) [µM] | IC50 (DHFR E. coli) [µM] | MBC (E. coli [15]; [31]) [µM] | MIC (B. subtilis [16]; [32]) [µM] | Inhibition Zone (IZ) Diameter [17] | MBC (P. aeruginosa [3]) [µM] | also measured |
| --- | --- | --- | --- | --- | --- | --- | --- | --- | --- | --- | --- | --- | --- | --- | --- | --- | --- | --- | --- | --- | --- |
| COc1ccc(-c2cc(-c3ccccc3)nc3nc(-c4ccccc4)nn23)cc1 [Compound 9d, 7-(4-Methoxyphenyl)-2,5-diphenyl-1,2,4-triazolo[1,5-a]pyrimidine] | 27 | 35 | 0.109 ± 0.007 (≈ 0.0412 µg/mL) | 0.073 ± 0.005 (≈ 0.0276 µg/mL) | 0.039 ± 0.002 (≈ 0.0148 µg/mL) | 0.217 ± 0.013 | 21.5 ± 1 (≈ 8.14 µg/mL) | 0.075 ± 0.005 (≈ 0.0284 µg/mL) | 0.064 ± 0.003 (≈ 0.0242 µg/mL) | 34 | 35 | 0.071 ± 0.004 (≈ 0.0269 µg/mL) | 33 | 30 | 26.3 ± 1 (≈ 9.95 µg/mL) | 5.9 ± 0.2 | 0.102 ± 0.007 (≈ 0.0386 µg/mL) | 0.038 ± 0.002 (≈ 0.0144 µg/mL) |  |  |  |
| COc1ccc(-c2cc(-c3ccc(Cl)cc3)n3nc(-c4ccccc4)nc3n2)cc1 [Compound 9n, 7-(4-Chlorophenyl)-5-(4-methoxyphenyl)-2-phenyl-1,2,4-triazolo[1,5-a]pyrimidine] | 32 | 41 | 0.094 (≈ 0.0388 µg/mL) | 0.065 ± 0.004 (≈ 0.0268 µg/mL) | 0.033 ± 0.002 (≈ 0.0136 µg/mL) | 0.19 ± 0.011 | 18.5 ± 1 (≈ 7.64 µg/mL) | 0.064 ± 0.005 (≈ 0.0264 µg/mL) | 0.049 (≈ 0.0202 µg/mL) | 40 | 40 | 0.065 ± 0.002 (≈ 0.0268 µg/mL) | 40 | 36 | 21.9 ± 1 (≈ 9.04 µg/mL) | 4.6 ± 0.2 | 0.093 (≈ 0.0384 µg/mL) | 0.029 ± 0.002 (≈ 0.012 µg/mL) | approximately 40 mm | 0.094 ± 0.006 (≈ 0.0388 µg/mL) | MBC (B. subtilis [8]): 0.049 ± 0.002 µM (≈ 0.0202 µg/mL); folds less potent than ciprofloxacin as a bactericidal agent (MBC) (B. subtilis [8]): 2.6; MBC (E. coli [15]): 0.093 ± 0.006 µM (≈ 0.0384 µg/mL); times less effective than ciprofloxacin (MIC) (B. subtilis [16]): 3 |
| COc1ccc(-c2cc(-c3ccc(C)cc3)n3nc(-c4ccccc4)nc3n2)cc1 [Compound 9o, 5-(4-Methoxyphenyl)-2-phenyl-7-p-tolyl-1,2,4-triazolo[1,5-a]pyrimidine] | 35 | 45 | 0.084 (≈ 0.033 µg/mL) | 0.051 (≈ 0.02 µg/mL) | 0.024 (≈ 0.00942 µg/mL) | 0.182 ± 0.01 | 15.5 (≈ 6.08 µg/mL) | 0.053 (≈ 0.0208 µg/mL) | 0.032 (≈ 0.0126 µg/mL) | 42 | 43 | 0.046 (≈ 0.0181 µg/mL) | 43 | 38 | 19.5 (≈ 7.65 µg/mL) | 3.9 ± 0.1 | 0.087 (≈ 0.0341 µg/mL) | 0.016 (≈ 0.00628 µg/mL) | 42–45 mm | 0.084 ± 0.005 (≈ 0.033 µg/mL) | MIC (E. coli [4]): 0.051 ± 0.003 µM (≈ 0.02 µg/mL); MIC (S. aureus [5]): 0.024 ± 0.001 µM (≈ 0.00942 µg/mL); MIC (A. flavus [6]): 15.50 ± 1 µM (≈ 6.08 µg/mL); MIC (P. aeruginosa [7]): 0.053 ± 0.004 µM (≈ 0.0208 µg/mL); MBC (B. subtilis [8]): 0.032 ± 0.002 µM (≈ 0.0126 µg/mL); folds less potent than ciprofloxacin as a bactericidal agent (MBC) (B. subtilis [8]): 1.7; MBC (S. aureus [11]): 0.046 ± 0.002 µM (≈ 0.0181 µg/mL); MIC (C. albicans [14]): 19.50 ± 1 µM (≈ 7.65 µg/mL); MBC (E. coli [15]): 0.087 ± 0.006 µM (≈ 0.0341 µg/mL); MIC (B. subtilis [16]): 0.016 ± 0.001 µM (≈ 0.00628 µg/mL); times less effective than ciprofloxacin (MIC) (B. subtilis [16]): 1.6 |
| COc1ccc(-c2cc(-c3ccc(OC)cc3)n3nc(-c4ccccc4)nc3n2)cc1 [Compound 9p, 5,7-Bis(4-methoxyphenyl)-2-phenyl-1,2,4-triazolo[1,5-a]pyrimidine] | 30 | 39 | 0.098 (≈ 0.04 µg/mL) | 0.069 ± 0.004 (≈ 0.0282 µg/mL) | 0.069 (≈ 0.0282 µg/mL) | 0.205 ± 0.013 | 19.9 ± 1 (≈ 8.13 µg/mL) | 0.068 (≈ 0.0278 µg/mL) | 0.052 ± 0.003 (≈ 0.0212 µg/mL) | 38 | 38 | 0.069 ± 0.003 (≈ 0.0282 µg/mL) | 37 | 31 | 23.7 ± 1 (≈ 9.68 µg/mL) | 5.4 ± 0.2 | 0.097 (≈ 0.0396 µg/mL) | 0.035 ± 0.002 (≈ 0.0143 µg/mL) | approximately 38 mm | 0.098 ± 0.006 (≈ 0.04 µg/mL) | MIC (S. aureus [5]): 0.037 ± 0.002 µM (≈ 0.0151 µg/mL); MIC (P. aeruginosa [7]): 0.068 ± 0.005 µM (≈ 0.0278 µg/mL); MBC (E. coli [15]): 0.097 ± 0.006 µM (≈ 0.0396 µg/mL) |
| OC(Cn1cncn1)(Cn1cncn1)c1ccc(F)cc1F [Fluconazole, reference compound] | 40 |  |  |  |  |  | 11.5 (≈ 3.52 µg/mL) |  |  |  |  |  |  |  | 17.5 (≈ 5.36 µg/mL) |  |  |  |  |  | MIC (A. flavus [6]): 11.50 ± 1 µM (≈ 3.52 µg/mL); Inhibition Zone (IZ) Diameter [18]: 40 mm; MIC (C. albicans [14]): 17.50 ± 1 µM (≈ 5.36 µg/mL); MIC (tested fungal species): 11.5 to 17.5 µM (≈ 3.52 to 5.36 µg/mL) |
| COc1ccc(CCc2nc3[nH]cc(C(=O)NN)c(=O)n3n2)cc1OC [IIIa] |  |  |  |  |  |  |  |  |  |  |  |  |  |  |  |  |  |  |  |  | MIC [19]: ≥ 2 µg/mL; IC50, DNA displacement experiment [20]: 40 µg/mL (≈ 112 µM); IC50, DNA displacement experiment [21]: 61 µg/mL (≈ 170 µM) |
| NNC(=O)c1c[nH]c2nc(N3CCCC3)nn2c1=O [IIIb] |  |  |  |  |  |  |  |  |  |  |  |  |  |  |  |  |  |  |  |  | MIC [19]: ≥ 2 µg/mL; IC50, DNA displacement experiment [20]: 40 µg/mL (≈ 152 µM); IC50, DNA displacement experiment [21]: 61 µg/mL (≈ 232 µM) |
| CO[C@@H]1[C@@H](OC(N)=O)[C@@H](O)[C@H](Oc2ccc3c(O)c(NC(=O)c4ccc(O)c(CC=C(C)C)c4)c(=O)oc3c2C)OC1(C)C [Novobiocin] |  |  |  |  |  |  |  |  |  |  |  |  |  |  |  |  |  |  |  |  | IC50 [22]: 26.7 µM |
